Laboratory results published in PubChem BioAssay AID1963973 (Molecular Pharmacology Branch, DTP, NCI, 2024).

Test system: 883617-216-R-J1-PDC tumor spheroids, viability
Experiment: Anticancer human tumor 883617-216-R-J1-PDC patient-derived bladder carcinoma cell line growth inhibition [PI3K]
Conditions: spheroids with HUVEC and MSC; for IC50: curve of first compound; for viability, T/C: stronger effect = lower value
Method in brief: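 Viability of mixed-cell spheroids was determined after exposure to pairwise combinations, one partner being inavolisib, alpelisib, duvelisib or copanlisib. Highest tested concentration matched clinical Cmax where known and 10 microM where not, descending in half-log steps.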

[1] = second compound 0.0316 µM, first compound 0.0316 µM
[2] = second compound 0.0316 µM, first compound 0.1 µM
[3] = second compound 0.0316 µM, first compound 0.316 µM
[4] = second compound 0.0316 µM, first compound 1 µM
[5] = second compound 0.0316 µM, first compound 3.16 µM
[6] = second compound 0.0316 µM, first compound 10 µM
[7] = second compound 0.1 µM, first compound 0.0316 µM
[8] = second compound 0.1 µM, first compound 0.1 µM
[9] = second compound 0.1 µM, first compound 0.316 µM
[10] = second compound 0.1 µM, first compound 1 µM
[11] = second compound 0.1 µM, first compound 3.16 µM
[12] = second compound 0.1 µM, first compound 10 µM
[13] = second compound 0.316 µM, first compound 0.0316 µM
[14] = second compound 0.316 µM, first compound 0.1 µM
[15] = second compound 0.316 µM, first compound 0.316 µM
[16] = second compound 0.316 µM, first compound 1 µM
[17] = second compound 0.316 µM, first compound 3.16 µM
[18] = second compound 0.316 µM, first compound 10 µM
[19] = second compound 1 µM, first compound 0.0316 µM
[20] = second compound 1 µM, first compound 0.1 µM
[21] = second compound 1 µM, first compound 0.316 µM
[22] = second compound 1 µM, first compound 1 µM
[23] = second compound 1 µM, first compound 3.16 µM
[24] = second compound 1 µM, first compound 10 µM
[25] = second compound 3.16 µM, first compound 0.0316 µM
[26] = second compound 3.16 µM, first compound 0.1 µM
[27] = second compound 3.16 µM, first compound 0.316 µM
[28] = second compound 3.16 µM, first compound 1 µM
[29] = second compound 3.16 µM, first compound 3.16 µM
[30] = second compound 3.16 µM, first compound 10 µM
[31] = second compound 10 µM, first compound 0.0316 µM
[32] = second compound 10 µM, first compound 0.1 µM
[33] = second compound 10 µM, first compound 0.316 µM
[34] = second compound 10 µM, first compound 1 µM
[35] = second compound 10 µM, first compound 3.16 µM
[36] = second compound 10 µM, first compound 10 µM
[37] = second compound 0.0316 µM, first compound 0.00316 µM
[38] = second compound 0.0316 µM, first compound 0.01 µM
[39] = second compound 0.1 µM, first compound 0.00316 µM
[40] = second compound 0.1 µM, first compound 0.01 µM
[41] = second compound 0.316 µM, first compound 0.00316 µM
[42] = second compound 0.316 µM, first compound 0.01 µM
[43] = second compound 1 µM, first compound 0.00316 µM
[44] = second compound 1 µM, first compound 0.01 µM
[45] = second compound 3.16 µM, first compound 0.00316 µM
[46] = second compound 3.16 µM, first compound 0.01 µM
[47] = second compound 10 µM, first compound 0.00316 µM
[48] = second compound 10 µM, first compound 0.01 µM
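Further: spheroids exposed to agents for 7 days before the viability read.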

CC(C)NCC(C(=O)N1CCN(c2ncnc3c2C(C)CC3O)CC1)c1ccc(Cl)cc1 (stereo not drawn) + CC(Nc1ncnc2nc[nH]c12)c1cc2cccc(Cl)c2c(=O)n1-c1ccccc1
IC50 (second compound 0.0316 µM): 0.52 µM | IC50 (second compound 0.1 µM): 0.556 µM | IC50 (second compound 0.316 µM): 0.492 µM | IC50 (second compound 1 µM): 0.513 µM | IC50 (second compound 3.16 µM): 0.345 µM | IC50 (second compound 10 µM): < 0.0316 µM | viability, T/C [1]: 87.6% | viability, T/C [2]: 84.8% | viability, T/C [3]: 55% | viability, T/C [4]: 39.7% | viability, T/C [5]: 17.8% | viability, T/C [6]: 9.17% | viability, T/C [7]: 78.2% | viability, T/C [8]: 76% | viability, T/C [9]: 59.9% | viability, T/C [10]: 38.7% | viability, T/C [11]: 18.9% | viability, T/C [12]: 8.02% | viability, T/C [13]: 97.8% | viability, T/C [14]: 78.8% | viability, T/C [15]: 60.9% | viability, T/C [16]: 35.4% | viability, T/C [17]: 17.8% | viability, T/C [18]: 8.48% | viability, T/C [19]: 69.1% | viability, T/C [20]: 81.1% | viability, T/C [21]: 52.4% | viability, T/C [22]: 40% | viability, T/C [23]: 17.1% | viability, T/C [24]: 6.81% | viability, T/C [25]: 64% | viability, T/C [26]: 53.8% | viability, T/C [27]: 55.2% | viability, T/C [28]: 28.8% | viability, T/C [29]: 16.5% | viability, T/C [30]: 7.2% | viability, T/C [31]: 49.6% | viability, T/C [32]: 42.7% | viability, T/C [33]: 38.7% | viability, T/C [34]: 25.4% | viability, T/C [35]: 13.1% | viability, T/C [36]: 6.37%

CCN1CCN(Cc2ccc(Nc3ncc(F)c(-c4cc(F)c5nc(C)n(C(C)C)c5c4)n3)nc2)CC1 + CC(Nc1ncnc2nc[nH]c12)c1cc2cccc(Cl)c2c(=O)n1-c1ccccc1
IC50 (second compound 0.0316 µM): > 1 µM | IC50 (second compound 0.1 µM): > 1 µM | IC50 (second compound 0.316 µM): 0.582 µM | IC50 (second compound 1 µM): 0.282 µM | IC50 (second compound 3.16 µM): 0.0319 µM | IC50 (second compound 10 µM): 0.00337 µM | viability, T/C [37]: 91.4% | viability, T/C [38]: 79.4% | viability, T/C [1]: 79.2% | viability, T/C [2]: 65.7% | viability, T/C [3]: 56.3% | viability, T/C [4]: 51.3% | viability, T/C [39]: 89.3% | viability, T/C [40]: 88.8% | viability, T/C [7]: 71.6% | viability, T/C [8]: 60.2% | viability, T/C [9]: 64.1% | viability, T/C [10]: 50.7% | viability, T/C [41]: 87.5% | viability, T/C [42]: 78.4% | viability, T/C [13]: 60.8% | viability, T/C [14]: 67.8% | viability, T/C [15]: 46% | viability, T/C [16]: 49.6% | viability, T/C [43]: 69.6% | viability, T/C [44]: 69.4% | viability, T/C [19]: 59.3% | viability, T/C [20]: 52.2% | viability, T/C [21]: 54.8% | viability, T/C [22]: 40.2% | viability, T/C [45]: 72.5% | viability, T/C [46]: 61.9% | viability, T/C [25]: 50.3% | viability, T/C [26]: 40.7% | viability, T/C [27]: 40.1% | viability, T/C [28]: 35.2% | viability, T/C [47]: 51.3% | viability, T/C [48]: 34.8% | viability, T/C [31]: 34% | viability, T/C [32]: 30.8% | viability, T/C [33]: 28.1% | viability, T/C [34]: 27%

Cn1ncc(Cl)c1-c1cc(C(=O)NC(CN)Cc2cccc(F)c2)sc1Cl (stereo not drawn) + CC(Nc1ncnc2nc[nH]c12)c1cc2cccc(Cl)c2c(=O)n1-c1ccccc1
IC50 (second compound 0.0316 µM): 0.518 µM | IC50 (second compound 0.1 µM): 0.443 µM | IC50 (second compound 0.316 µM): 0.539 µM | IC50 (second compound 1 µM): 0.394 µM | IC50 (second compound 3.16 µM): 0.257 µM | IC50 (second compound 10 µM): < 0.0316 µM | viability, T/C [1]: 90.3% | viability, T/C [2]: 88.7% | viability, T/C [3]: 58.2% | viability, T/C [4]: 36% | viability, T/C [5]: 13.7% | viability, T/C [6]: 6.6% | viability, T/C [7]: 74.9% | viability, T/C [8]: 83.1% | viability, T/C [9]: 55.2% | viability, T/C [10]: 30.2% | viability, T/C [11]: 12.4% | viability, T/C [12]: 6.85% | viability, T/C [13]: 89% | viability, T/C [14]: 89% | viability, T/C [15]: 63.1% | viability, T/C [16]: 33.9% | viability, T/C [17]: 10.6% | viability, T/C [18]: 7.26% | viability, T/C [19]: 84.4% | viability, T/C [20]: 67.1% | viability, T/C [21]: 57.9% | viability, T/C [22]: 31.8% | viability, T/C [23]: 11.7% | viability, T/C [24]: 6.93% | viability, T/C [25]: 86.4% | viability, T/C [26]: 70.1% | viability, T/C [27]: 44.6% | viability, T/C [28]: 25.6% | viability, T/C [29]: 13.2% | viability, T/C [30]: 5.57% | viability, T/C [31]: 50.3% | viability, T/C [32]: 40.3% | viability, T/C [33]: 37.1% | viability, T/C [34]: 23% | viability, T/C [35]: 10.5% | viability, T/C [36]: 5.07%

Cn1ncnc1[C@H]1c2n[nH]c(=O)c3cc(F)cc(c23)N[C@@H]1c1ccc(F)cc1 + CC(Nc1ncnc2nc[nH]c12)c1cc2cccc(Cl)c2c(=O)n1-c1ccccc1
IC50 (second compound 0.0316 µM): > 0.1 µM | IC50 (second compound 0.1 µM): > 0.1 µM | IC50 (second compound 0.316 µM): > 0.1 µM | IC50 (second compound 1 µM): > 0.1 µM | IC50 (second compound 3.16 µM): 0.0723 µM | IC50 (second compound 10 µM): 0.000867 µM | viability, T/C (second compound 0.0316 µM, first compound 0.000316 µM): 99% | viability, T/C (second compound 0.0316 µM, first compound 0.001 µM): 106% | viability, T/C [37]: 72.5% | viability, T/C [38]: 86.4% | viability, T/C [1]: 76.8% | viability, T/C [2]: 51% | viability, T/C (second compound 0.1 µM, first compound 0.000316 µM): 108% | viability, T/C (second compound 0.1 µM, first compound 0.001 µM): 101% | viability, T/C [39]: 72.6% | viability, T/C [40]: 66.1% | viability, T/C [7]: 74.9% | viability, T/C [8]: 67% | viability, T/C (second compound 0.316 µM, first compound 0.000316 µM): 82.4% | viability, T/C (second compound 0.316 µM, first compound 0.001 µM): 82.6% | viability, T/C [41]: 85.1% | viability, T/C [42]: 70.8% | viability, T/C [13]: 54.5% | viability, T/C [14]: 65.4% | viability, T/C (second compound 1 µM, first compound 0.000316 µM): 84.6% | viability, T/C (second compound 1 µM, first compound 0.001 µM): 80.1% | viability, T/C [43]: 66.1% | viability, T/C [44]: 62% | viability, T/C [19]: 62.5% | viability, T/C [20]: 57.5% | viability, T/C (second compound 3.16 µM, first compound 0.000316 µM): 81.1% | viability, T/C (second compound 3.16 µM, first compound 0.001 µM): 71% | viability, T/C [45]: 60.1% | viability, T/C [46]: 58.4% | viability, T/C [25]: 56.3% | viability, T/C [26]: 46.6% | viability, T/C (second compound 10 µM, first compound 0.000316 µM): 61.6% | viability, T/C (second compound 10 µM, first compound 0.001 µM): 41.7% | viability, T/C [47]: 45% | viability, T/C [48]: 40.5% | viability, T/C [31]: 35.5% | viability, T/C [32]: 29.4%
